pEC50: −log10 of the molar value. Read-outs that look alike come from different tables or passages of the source.
Key:
Assay type in all cases: cell-based
[1] = target: T1, ΔF508-CFTR (Homo sapiens, UniProt P13569, DEL508-508); experiment: CFTR cell surface levels using HRP-tagged ΔF508-CFTR expressing CFBE cells, in the presence of a co-corrector
T1 construct: host or cells: CFBE41o-, doxycycline-inducible
Summary of the method: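 Chemiluminescent read-out of surface HRP (15 min, dark) after PBS washes. Activity is normalized as 100×(sample−DMSO)/(3 μM co-corrector alone−DMSO).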

[2] = target: T1, ΔF508-CFTR; experiment: CFTR cell surface levels using HRP-tagged ΔF508-CFTR expressing CFBE cells, intrinsic corrector capacity; parameters: % Activation: concentration or dose not given beside the values
Summary of the method: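 Surface ΔF508-CFTR was measured as HRP chemiluminescence from an extracellular-loop-4 tag, expressed as percent activity between DMSO and a […] corrector control.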

[3] = target: T2, CFTR ΔF508 (Homo sapiens, UniProt P13569, DEL508-508); experiment: Chronic TECC assay, primary bronchial epithelial cells of CF patients homozygous for CFTR ΔF508 (corrector, co-corrector and potentiator); conditions: for % Activity at 1 μM (AUC**) / EC50 / % Activity at 1 μM (Ieq*) / % Activity at 3 μM (AUC**): chronic TECC; for % Activity at 1 μM (AUC**) / % Activity at 1 μM (Ieq*): test compound at 1 μM; for % Activity at 3 μM (AUC**): test compound at 3 μM
T2 construct: bronchial epithelial cells isolated from CF patients homozygous for the CFTR ΔF508 mutation; McGill University; Asterand; University of North Carolina hAEC-CF; host or cells: primary human bronchial epithelial cells from CF patients homozygous for ΔF508, differentiated at air-liquid interface
Method: Primary Bronchial Epithelial Cells Protocol
The TECC (Tranepithelial Clamp Circuit, EP-design) assay measures the functionality of the cystic fibrosis Transmembrane Conductance regulator (CFTR) by measuring the short circuit current (Isc) generated over the basolateral and apical membrane of lung epithelial cells. In TECC the transepithelial potential PD and transepithelial resistance (Rt) are measured in an open circuit and transformed to Ieq using Ohm's law. 24 Wells can be measured simultaneously allowing a higher throughput compared to Ussing chambers.
For this purpose, bronchial epithelial cells isolated from CF patients homozygous for the CFTR ΔF508 mutation (hAEC-CF, Epithelix, Geneva, Switzerland; McGill University, Montreal, Qc; Asterand, Detroit, Mich.; University of North Carolina, Chapel Hill, N.C.) are plated on type IV collagen-coated Transwell® supports (Costar).
For electrophysiological recording of the “chronic” experiments, the human airway epithelia are mounted in the TECC heating plate for electrophysiological measurement and kept at 37° C. The epithelia are bathed in a NaCl-Ringer solution (120 mM NaCl, 25 mM NaHCO3, 1.2 mM CaCl2, 1.2 mM MgCl2, 0.8 mM KH2PO4, 0.8 mM K2HPO4, pH 7.4, 5 mM glucose) on both the basolateral and apical sides. Test compounds (corrector, co-corrector, 4-[(2R,4R)-4-({[1-(2,2-difluoro-1,3-benzodioxol-5-yl)cyclopropyl]carbonyl}amino)-7-(difluoromethoxy)-3,4-dihydro-2H-chromen-2-yl]benzoic acid, and potentiator, N-(3-carbamoyl-5,5,7,7-tetramethyl-4,7-dihydro-5H-thieno[2,3-c]pyran-2-yl)-1H-pyrazole-5-carboxamide), are re-added to the recording solution prior to measurement. […] Apical amiloride is used to inhibit the endogenous ENaC currents while forskolin is applied on both apical and basolateral side to stimulate CFTR. Measurements are done during a 20 minute timeframe with recordings every 2 minutes. The increase in Ieq is used as a measure for the increased CFTR activity, EC50 values can be generated by measuring impact of different concentrations of compound on Ieq on primary cells, for this purpose each transwell is treated with a different compound concentration. […] Raw data were normalized to percentage activity values using the equation: 100×(Sample−Negative control)/(Positive control−Negative Control).

[4] = HRP-tagged ΔF508-CFTR CFBE cells, in the presence of 3 μM co-corrector
[5] = HRP-tagged ΔF508-CFTR CFBE cells, in the presence of 3 μM co-corrector, read-out: EC50
[6] = HRP-tagged ΔF508-CFTR expressing CFBE41o- cells, compound alone (intrinsic corrector capacity), 20 hours at 33° C.
[7] = HRP-tagged ΔF508-CFTR expressing CFBE41o- cells, compound alone (intrinsic corrector capacity), 20 hours at 33° C., read-out: EC50
[8] = AUC = full area under the curve upon forskolin stimulation
[9] = Ieq = calculations based on the maximum current, read-out: EC50 (nM) (Ieq*)
[10] = Ieq = calculations based on the maximum current
[11] = AUC = full area under the curve upon forskolin stimulation, read-out: EC50 (nM) (AUC**)

T2 sequence (P13569 with tags, fused parts or gaps DEL508-508): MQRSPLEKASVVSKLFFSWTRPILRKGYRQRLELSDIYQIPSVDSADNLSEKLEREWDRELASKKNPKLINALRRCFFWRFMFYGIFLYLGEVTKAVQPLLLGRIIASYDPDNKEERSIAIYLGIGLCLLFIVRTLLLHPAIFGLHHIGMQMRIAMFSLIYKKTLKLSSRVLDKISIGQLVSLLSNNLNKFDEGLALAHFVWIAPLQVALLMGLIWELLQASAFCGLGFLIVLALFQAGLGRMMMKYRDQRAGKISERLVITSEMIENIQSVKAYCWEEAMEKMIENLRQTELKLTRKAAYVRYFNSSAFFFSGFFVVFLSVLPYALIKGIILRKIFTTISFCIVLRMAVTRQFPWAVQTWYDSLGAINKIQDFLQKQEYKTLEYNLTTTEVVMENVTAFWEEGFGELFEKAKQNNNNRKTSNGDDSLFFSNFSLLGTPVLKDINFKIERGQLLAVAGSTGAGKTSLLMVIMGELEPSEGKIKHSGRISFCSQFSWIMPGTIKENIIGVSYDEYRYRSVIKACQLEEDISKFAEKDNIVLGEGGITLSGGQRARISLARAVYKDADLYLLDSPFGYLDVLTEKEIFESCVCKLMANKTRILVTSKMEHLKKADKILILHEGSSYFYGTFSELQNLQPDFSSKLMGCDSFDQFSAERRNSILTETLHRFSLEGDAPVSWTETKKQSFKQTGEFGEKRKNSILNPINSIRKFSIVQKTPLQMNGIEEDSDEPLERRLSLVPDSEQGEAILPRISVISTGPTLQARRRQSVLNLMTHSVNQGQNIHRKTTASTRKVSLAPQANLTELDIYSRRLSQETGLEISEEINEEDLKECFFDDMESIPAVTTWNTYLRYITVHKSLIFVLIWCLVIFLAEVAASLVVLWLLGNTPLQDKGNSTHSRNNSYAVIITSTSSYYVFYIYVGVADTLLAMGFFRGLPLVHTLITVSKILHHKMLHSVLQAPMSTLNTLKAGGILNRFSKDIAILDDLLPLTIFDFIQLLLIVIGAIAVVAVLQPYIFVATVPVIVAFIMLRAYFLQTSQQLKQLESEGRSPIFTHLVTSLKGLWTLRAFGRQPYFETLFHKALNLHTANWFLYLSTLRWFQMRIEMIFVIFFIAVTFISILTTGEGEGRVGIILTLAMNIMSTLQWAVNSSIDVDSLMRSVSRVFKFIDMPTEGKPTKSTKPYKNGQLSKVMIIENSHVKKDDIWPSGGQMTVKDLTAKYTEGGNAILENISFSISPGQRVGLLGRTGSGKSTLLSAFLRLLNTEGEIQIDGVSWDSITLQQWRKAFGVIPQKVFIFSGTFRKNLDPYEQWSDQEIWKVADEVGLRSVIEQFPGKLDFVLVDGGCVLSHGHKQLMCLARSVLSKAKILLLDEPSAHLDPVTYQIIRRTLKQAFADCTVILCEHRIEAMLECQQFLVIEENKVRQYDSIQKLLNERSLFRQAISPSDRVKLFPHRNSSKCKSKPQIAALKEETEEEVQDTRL
T1 sequence (P13569 with tags, fused parts or gaps DEL508-508): as above

Row | Compound | % Activation [1, 4] [%] | pEC50 [1, 5] | % Activation [2, 6] [%] | pEC50 [2, 7] | % Activity at 1 μM (AUC**) [3, 8] [%] | other results
1 | COC1CN(S(=O)(=O)NC(=O)c2cc(N3CCC(N4CCOCC4)CC3)c3c(C4CCC4)nn(-c4ccc(F)cc4)c3n2)C1 [Compound 484, 3-cyclobutyl-1-(4-fluorophenyl)-N-(3-methoxyazetidine-1-sulfonyl)-4-[4-(morpholin-4-yl)piperidin-1-yl]-1H-pyrazolo[3,4-b]pyridine-6-carboxamide] | 485.6 | 6.85 | 216.9 | 6.91 | 380 | –
2 | COC1CCN(c2cc(C(=O)NS(C)(=O)=O)nc3c2c(C(C)C)nn3-c2cccc(C)c2)CC1 [Compound 117, N-(methanesulfonyl)-4-(4-methoxypiperidin-1-yl)-1-(3-methylphenyl)-3-(propan-2-yl)-1H-pyrazolo[3,4-b]pyridine-6-carboxamide] | 417.92 | 6.70 | 281.88 | 6.48 | – | EC50 [3, 9]: > 1000 nM; % Activity at 1 μM (Ieq*) [3, 10]: 81%
3 | CN(C)S(=O)(=O)NC(=O)c1cc(N2CCC(CN3CCCC3)CC2)c2c(C3CCC3)nn(-c3ccc(F)cc3)c2n1 [Compound 589, 3-cyclobutyl-N-(dimethylsulfamoyl)-1-(4-fluorophenyl)-4-{4-[(pyrrolidin-1-yl)methyl]piperidin-1-yl}-1H-pyrazolo[3,4-b]pyridine-6-carboxamide] | 422.95 | 6.83 | 193.6 | 6.70 | 236.6667 | –
4 | O=C(NS(=O)(=O)C1CCOC1)c1cc(N2CCC(CN3CCOCC3)CC2)c2c(C3CCC3)nn(-c3ccc(F)cc3)c2n1 (stereo not shown) [Compound 495, 3-cyclobutyl-1-(4-fluorophenyl)-4-{4-[(morpholin-4-yl)methyl]piperidin-1-yl}-N-(oxolane-3-sulfonyl)-1H-pyrazolo[3,4-b]pyridine-6-carboxamide] | 469.08 | 7.18 | 242.05 | 6.66 | – | % Activity at 3 μM (AUC**) [3, 8]: 262.4635%
5 | CS(=O)(=O)NC(=O)c1cc(OCCC2CCOCC2)c2c(C3CCC3)nn(-c3ccccc3)c2n1 [Compound 198, 3-cyclobutyl-N-(methanesulfonyl)-4-[2-(oxan-4-yl)ethoxy]-1-phenyl-1H-pyrazolo[3,4-b]pyridine-6-carboxamide] | 321.57 | 6.33 | 135.73 | 6.20 | 477.39 | –
6 | CS(=O)(=O)NC(=O)c1cc(N2CCC(CCN3CCOCC3)CC2)c2c(C3CCC3)nn(-c3ccccc3)c2n1 [Compound 331, 3-cyclobutyl-N-(methanesulfonyl)-4-{4-[2-(morpholin-4-yl)ethyl]piperidin-1-yl}-1-phenyl-1H-pyrazolo[3,4-b]pyridine-6-carboxamide] | 546.05 | – | 347.15 | – | – | pEC50 [1]: 7.42; pEC50 [2]: 6.87; pEC50 [3]: 8.00
7 | CS(=O)(=O)NC(=O)c1cc(OCC2CCOCC2)c2c(C3CCC3)nn(-c3ccc(F)cc3)c2n1 [Compound 318, 3-cyclobutyl-1-(4-fluorophenyl)-N-(methanesulfonyl)-4-[(oxan-4-yl)methoxy]-1H-pyrazolo[3,4-b]pyridine-6-carboxamide] | 359.5 | 6.73 | 183.45 | 6.39 | 439.94 | –
8 | CS(=O)(=O)NC(=O)c1cc(N2CCC(N3CCOCC3)CC2)c2c(C3CCC3)nn(-c3ccccc3)c2n1 [Compound 328, 3-cyclobutyl-N-(methanesulfonyl)-4-[4-(morpholin-4-yl)piperidin-1-yl]-1-phenyl-1H-pyrazolo[3,4-b]pyridine-6-carboxamide] | – | – | – | – | – | pEC50 [3]: 7.02
9 | CN(C)S(=O)(=O)NC(=O)c1cc(N2CCC(N3CCOCC3)CC2)c2c(C3CCC3)nn(-c3ccc(F)cc3)c2n1 [Compound 408, 3-cyclobutyl-N-(dimethylsulfamoyl)-1-(4-fluorophenyl)-4-[4-(morpholin-4-yl)piperidin-1-yl]-1H-pyrazolo[3,4-b]pyridine-6-carboxamide] | – | – | – | – | 430 | EC50 [3, 11]: 21 nM
10 | COC1CCN(C2CCN(c3cc(C(=O)NS(=O)(=O)N(C)C)nc4c3c(C3CCC3)nn4-c3ccc(F)cc3)CC2)CC1 [Compound 381, 3-cyclobutyl-N-(dimethylsulfamoyl)-1-(4-fluorophenyl)-4-(4-methoxy[1,4'-bipiperidin]-1'-yl)-1H-pyrazolo[3,4-b]pyridine-6-carboxamide] | – | – | – | – | – | EC50 [3, 11]: 4100 nM; % Activity at 3 μM (AUC**) [3, 8]: 441%
11 | COCCN(C)c1ccc(-c2cc(C(=O)NS(C)(=O)=O)nc3c2c(C2CCC2)nn3-c2ccccc2)cn1 [Compound 63, 3-cyclobutyl-N-(methanesulfonyl)-4-{6-[(2-methoxyethyl)(methyl)amino]pyridin-3-yl}-1-phenyl-1H-pyrazolo[3,4-b]pyridine-6-carboxamide] | – | – | – | – | – | EC50 [3, 9]: 40 nM; % Activity at 1 μM (Ieq*) [3, 10]: 325%
12 | CC(C)Oc1nn(C2CCCCC2)c2nc(C(=O)NS(=O)(=O)N(C)C)cc(-c3ccc(N4CCN(C5CC5)CC4)cc3)c12 [Compound 559, 1-cyclohexyl-4-[4-(4-cyclopropylpiperazin-1-yl)phenyl]-N-(dimethylsulfamoyl)-3-[(propan-2-yl)oxy]-1H-pyrazolo[3,4-b]pyridine-6-carboxamide] | 291.03 | 6.81 | – | – | 231.6378 | –
13 | COCCN(C)c1ccc(-c2cc(C(=O)NS(C)(=O)=O)nc3c2c(C2CCC2)nn3-c2ccccc2)cc1 [Compound 75, 3-cyclobutyl-N-(methanesulfonyl)-4-{4-[(2-methoxyethyl)(methyl)amino]phenyl}-1-phenyl-1H-pyrazolo[3,4-b]pyridine-6-carboxamide] | – | – | – | – | – | EC50 [3, 9]: 30 nM; % Activity at 1 μM (Ieq*) [3, 10]: 316%
14 | CS(=O)(=O)NC(=O)c1cc(N2CCC(N3CCOCC3)CC2)c2c(C3CCC3)nn(-c3ccc(F)cc3)c2n1 [Compound 421, 3-cyclobutyl-1-(4-fluorophenyl)-N-(methanesulfonyl)-4-[4-(morpholin-4-yl)piperidin-1-yl]-1H-pyrazolo[3,4-b]pyridine-6-carboxamide] | – | – | – | – | 193.3333 | EC50 [3, 11]: 45.6 nM
15 | CN(C)S(=O)(=O)NC(=O)c1cc(OCC2CCOCC2)c2c(C3CCC3)nn(-c3ccccc3)c2n1 [Compound 334, 3-cyclobutyl-N-(dimethylsulfamoyl)-4-[(oxan-4-yl)methoxy]-1-phenyl-1H-pyrazolo[3,4-b]pyridine-6-carboxamide] | – | – | 121.75 | 6.78 | – | % Activity at 3 μM (AUC**) [3, 8]: 345.13%
16 | COCCN1CCN(c2ccc(-c3cc(C(=O)NS(=O)(=O)N(C)C)nc4c3c(C3CCC3)nn4C3CCCCC3)cn2)CC1 [Compound 552, 3-cyclobutyl-1-cyclohexyl-N-(dimethylsulfamoyl)-4-{6-[4-(2-methoxyethyl)piperazin-1-yl]pyridin-3-yl}-1H-pyrazolo[3,4-b]pyridine-6-carboxamide] | 364.2 | 6.88 | – | – | 235.2857 | –
17 | COC1CCN(c2cc(C(=O)NS(C)(=O)=O)nc3c2c(C2CCC2)nn3-c2ccccc2)CC1 [Compound 142, 3-cyclobutyl-N-(methanesulfonyl)-4-(4-methoxypiperidin-1-yl)-1-phenyl-1H-pyrazolo[3,4-b]pyridine-6-carboxamide] | – | – | – | – | 250 | EC50 [3, 11]: < 300 nM

— US10259810B2, “N-sulfonylated pyrazolo[3,4-b]pyridin-6-carboxamides and method of use” (AbbVie S.à.r.l., priority 2015, dated 2019)
